In patent EP4201923A1, “5-SUBSTITUTED 2,3-DIHYDROPYRIDIN-4-ONES AND PROCESS FOR PREPARING THE SAME” (Karl-Franzens-Universität Graz, priority 2021, dated 2023):

Key:
[1] = system: MRC-5 cells; experiment: Cytotoxicity assay using MRC-5 cells (XTT colorimetric cell viability); format: cell-based, human; conditions: solvent control DMSO 0.1 %
Excerpt: The results are expressed as cell metabolic activity in % of the solvent control.

[2] = system: human CCRF-CEM leukemia cells; experiment: Anticancer activity by cytotoxicity to human CCRF-CEM leukemia cells (XTT colorimetric cell viability); format: cell-based; conditions: solvent control DMSO 0.1 %
Procedure: Assays were performed using an established cancer cell line, human CCRF-CEM leukemia cells and cell viability determined as described above with a colorimetric assay using the tetrazolium salt XTT as reported (Moshin N et al. Monatshefte für Chemie 2018, 149, 801-812). The anticancer drug vinblastine, the solvent DMSO and the untreated cells are used as control. The compounds of examples 1 to 8 were investigated in concentrations of 5 µM and 50 µM. Table 2: Results for anticancer activity against CCRF-CEM cells expressed as cell metabolic activity in % of the solvent control The results are expressed as cell metabolic activity in % of the solvent control. […] Thus, the compounds of the present invention show a substantial anticancer activity.

[3] = system: Escherichia coli; experiment: Antimicrobial activity, drop plate method assay; format: cell-based; set-up: key: high activity (++); medium activity (+); low activity (±); no activity(-); conditions: 10 µl of 1 mg/ml in DMSO dropped on seeded agar plate; read after approximately 10-16 h
Procedure: (§1) A drop plate method assay (Alajlani M et al. Chromatographia 2016, 79, 1527-1532.) with modification was performed to detect the antimicrobial activity against several bacteria strains. Investigated compounds (compounds of examples 1-7, 9) were dissolved in DMSO to a concentration of 1 mg/ml. Using sterile micropipette 10 µl of each compound was directly but gently dropped over seeded agar plate with test organism. The liquid was allowed to diffuse before the plate was inverted and incubated. The growth conditions for every strain were considered. The results were noted when a lawn of the indicator organism appeared on the plate (approximately 10-16 h). The magnitude of activity was noted as high activity (++), medium activity (+), low activity (±) and no activity(-). Not determined data are indicated with n.d. Table 3: Antimicrobial activities of compounds_were detected over the test organisms

[4] = system: Micrococcus luteus; experiment: Antimicrobial activity, drop plate method assay; format: cell-based; set-up: key: high activity (++); medium activity (+); low activity (±); no activity(-); conditions: 10 µl of 1 mg/ml in DMSO dropped on seeded agar plate; read after approximately 10-16 h
Procedure: as §1

[5] = system: Pseudomonas fluorescens; experiment: Antimicrobial activity, drop plate method assay; format: cell-based; set-up: key: high activity (++); medium activity (+); low activity (±); no activity(-); conditions: 10 µl of 1 mg/ml in DMSO dropped on seeded agar plate; read after approximately 10-16 h
Procedure: as §1

[6] = system: Serratia sp; experiment: Antimicrobial activity, drop plate method assay; format: cell-based; set-up: key: high activity (++); medium activity (+); low activity (±); no activity(-); conditions: 10 µl of 1 mg/ml in DMSO dropped on seeded agar plate; read after approximately 10-16 h
Procedure: as §1

Compound | cell metabolic activity in % of the solvent control, mean ([1]; compound 5 µM) | cell metabolic activity in % of the solvent control, mean ([1]; compound 50 µM) | cell metabolic activity in % of the solvent control, mean ([2]; compound 5 µM) | cell metabolic activity in % of the solvent control, mean ([2]; compound 50 µM) | Antimicrobial activity, Escherichia coli [3] | Antimicrobial activity, Micrococcus luteus [4] | Antimicrobial activity, Pseudomonas fluorescens [5] | Antimicrobial activity, Serratia sp [6] | cell metabolic activity in % of the solvent control, mean ([1]; control substance at 100 nM) | cell metabolic activity in % of the solvent control, mean ([2]; control substance at 100 nM)
CC1(C)CC(=O)C(C(c2ccccc2)N2CCCC2)=CN1 (racemic) [Example 1, (RS)-2,3-Dihydro-2,2-dimethyl-5-(phenyl(pyrrolidin-1-yl)methyl)pyridin-4(1H)-one] | 107.18% | 87.86% | 88.69% | 9.02% | + | + | + | ± |  | 
CC1(C)CC(=O)C(C(c2ccccc2)N2CCCCC2)=CN1 (racemic) [Example 2, (RS)-2,3-Dihydro-2,2-dimethyl-5-(phenyl(piperidin-1-yl)methyl)pyridin-4(1H)-one] | 108.05% | 82.27% | 88.18% | 8.75% | + | + | + | ± |  | 
CC1(C)CC(=O)C(C(c2ccccc2)N2CCOCC2)=CN1 (racemic) [Example 3, (RS)-2,3-Dihydro-2,2-dimethyl-5-(phenyl(morpholin-1-yl)methyl)pyridin-4(1H)-one] | 110.88% | 84.05% | 93.13% | 10.98% | + | ++ | + | ± |  | 
CC1(C)CC(=O)C(C(c2ccc(F)cc2)N2CCCC2)=CN1 (racemic) [Example 4, (RS)-2,3-Dihydro-2,2-dimethyl-5-((4-fluorphenyl)-(pyrrolidin-1-yl)methyl)pyridin-4(1H)-one] | 105.92% | 90.99% | 88.03% | 8.82% | ++ | + | + | + |  | 
CC(C)c1ccc(C(C2=CNC(C)(C)CC2=O)N2CCCC2)cc1 (racemic) [Example 5, (RS)-2,3-Dihydro-2,2-dimethyl-5-((4-isopropylphenyl)-(pyrrolidin-1-yl)methyl)pyridin-4(1H)-one] | 104.11% | 42.19% | 75.36% | 8.72% | + |  | ++ | ± |  | 
CC1(C)CC(=O)C(C(c2ccc(F)cc2)N2CCOCC2)=CN1 (racemic) [Example 6, (RS)-2,3-Dihydro-2,2-dimethyl-5-((4-fluorphenyl)(morpholin-1-yl)methyl)pyridin-4 (1H) -one] | 105.36% | 89.35% | 87.71% | 8.78% | + |  | ++ | ± |  | 
Cc1ccc(C(C2=CNC(C)(C)CC2=O)N2CCCC2)cc1 (racemic) [Example 7, (RS)-2,3-Dihydro-2,2-dimethyl-5-((4-methylphenyl)-(pyrrolidin-1-yl)methyl)pyridin-4(1H)-one] | 100.07% | 88.41% | 87.47% | 8.52% | + |  | ++ | ± |  | 
CC1(C)CC(=O)C(C(c2ccccc2C(F)(F)F)N2CCCC2)=CN1 (racemic) [Example 8, (RS)-2,3-Dihydro-2,2-dimethyl-5-((pyrrolidin-1-yl)-(2-trifluormethylphenyl)methyl)pyridin-4(1H)-one] | 103.65% | 67.08% | 52.06% | 8.46% |  |  |  |  |  | 
CC1(C)CC(=O)C(C(c2ccncc2)N2CCCC2)=CN1 (racemic) [Example 9, (RS)-2,3-Dihydro-2,2-dimethyl-5-((4-pyridyl)-(pyrrolidin-1-yl)methyl)pyridin-4(1H)-one] |  |  |  |  | + | + |  | ± |  | 
CC[C@]1(O)C[C@@H]2CN(CCc3c([nH]c4ccccc34)[C@@](C(=O)OC)(c3cc4c(cc3OC)N(C)[C@H]3[C@@](O)(C(=O)OC)[C@H](OC(C)=O)[C@]5(CC)C=CCN6CC[C@]43[C@@H]65)C2)C1 [Vinblastine, vinblastine, reference compound] |  |  |  |  |  |  |  |  | 51.88% | 9.06%
